What was measured:
BZW2 = target: T1, BZW2 (Homo sapiens, UniProt Q9Y6E2); assay: XL177A-DTB chemoproteomic profiling with XL177A competition, BZW2; assay type: binding; details: BZW2 reporter ion intensity
T1 construct: endogenous in cells; host or cells: HEK 293AD lysate
T1 sequence (Q9Y6E2 1-419): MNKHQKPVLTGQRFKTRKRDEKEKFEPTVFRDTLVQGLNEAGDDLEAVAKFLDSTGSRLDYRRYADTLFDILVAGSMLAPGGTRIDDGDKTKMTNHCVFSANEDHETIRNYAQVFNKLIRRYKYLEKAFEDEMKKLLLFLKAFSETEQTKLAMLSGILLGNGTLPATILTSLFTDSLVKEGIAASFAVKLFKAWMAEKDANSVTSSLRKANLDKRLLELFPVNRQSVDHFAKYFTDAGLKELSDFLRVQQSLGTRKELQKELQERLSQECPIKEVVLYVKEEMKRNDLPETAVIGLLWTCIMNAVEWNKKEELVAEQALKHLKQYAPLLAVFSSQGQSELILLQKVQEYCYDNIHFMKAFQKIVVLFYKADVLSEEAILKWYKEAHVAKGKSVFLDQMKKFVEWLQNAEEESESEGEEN
Description: HEK 293AD cells were lysed as described above, and the lysate was cleared by centrifugation. […] SDS was added to a final concentration of 1.2% (27.2 μL of a 10% stock), and denatured by heating to 80 °C for 5 minutes. After cooling to RT, 1125 μL 1X PBS was added to dilute the final SDS concentration to 0.2%. 50 μL streptavidin agarose slurry was added to each sample, followed by incubation at RT for 3 hours. After streptavidin enrichment, samples were washed vigorously (2×0.2% SDS, 3x PBS, 3x ddH2O). After the final wash, all supernatant was removed using a flat-bottom tip, and the resin was flash frozen and stored at −80 °C until workup for TMT labeling.
To remove rapigest, recovered supernatants were acidified with 10% TFA, incubated at 37 °C for 45 minutes, and centrifuged at 14,000 rpm for 15 minutes at 4 °C. Peptides were then desalted by C18, and dried by vacuum centrifugation. Dried peptides were reconstituted in 50 mM pH8.0 TEAB and labeled with TMT reagent at RT for 1 hour. TMT reactions were pooled and treated with hydroxylamine according to the manufacturer’s instructions. Peptide mixtures were then dried, reconstituted in 50 mM ammonium bicarbonate and desalted by SP3[53]. Eluted peptides were then analyzed by nanoflow LC-MS/MS as described[64] with a NanoAcquity UPLC system (Waters, Milford, MA) interfaced to a QExactive HF mass spectrometer (Thermofisher Scientific, San Jose, CA). TMT labeled peptides were injected onto a precolumn (4 cm POROS 10R2, Applied Biosystems, Framingham, MA), resolved on an analytical column (30 µm I.D. × 50 cm packed with 5 µm Monitor C18) and introduced to the mass spectrometer by ESI (spray voltage = 3.5 kV, flow rate ~30 nL/min). The mass spectrometer was operated in data dependent mode such that the 15 most abundant ions in each MS scan (m/z 300–2000, 120 K resolution, target = 3E6, lock mass for 445.120025 enabled) were subjected to MS/MS (m/z 100–2000, 30 K resolution, target = 1E5, max fill time = 100 ms). Dynamic exclusion was selected with a repeat count of 1 and an exclusion time of 30 seconds. MS/MS data was extracted to.mgf using mulitplierz scripts[54],[55] and searched against a forward-reverse human NCBI refseq database using Mascot version 2.6. Search parameters specified fixed carbamidomethylation of cysteine, fixed N-terminal and lysine TMT labelling, and variable oxidation (methionine). Additional multiplierz scripts were used to filter results to 1% FDR and derive protein-level aggregate reporter ion intensities using peptides mapping uniquely into the genome.

USP7 = USP7 (Homo sapiens, UniProt Q93009); assay: Live cell treatment and competitive ABPP with HA-Ub-VS; assay type: cell-based; parameters: endogenous in cells; host or cells: MCF7; details: live cell treatment, 6 hr; read-out: IC50, USP7 inhibition in cyto
Description: HA-Ub-VS experiments were performed as previously described in Lamberto et al[29]. Briefly, target engagement lysis buffer (50 mM Tris pH 8.0, 150 mM NaCl, 5 mM MgCl2, 0.5 mM EDTA, 0.5% NP-40, 10% glycerol, 1 mM TCEP, protease and phosphatase inhibitors) was added to cell pellets on ice. Lysate was cleared by centrifugation and diluted to 1.67 mg/mL. Where indicated, 30 μL lysate was then incubated with inhibitors or DMSO for the indicated timepoints. 1 μM HA-Ub-VS was then added to the lysate and incubated at RT for the indicated time points. Labeling reactions were quenched with 4x LDS sample buffer (Thermo Fisher B0007) supplemented with 10% BME, vortexed vigorously, and heated to 95 C for 5 minutes. Samples were resolved by SDS-PAGE and analyzed by Western blot with the indicated antibodies.

[1] = XL177A-DTB pulldown, HEK293AD lysate pre-treated 100nM XL177A
[2] = XL177A-DTB pulldown, HEK293AD lysate pre-treated 1uM XL177A
[3] = XL177A-DTB pulldown, HEK293AD lysate pre-treated 10uM XL177A
[4] = average of Run 1 and Run 2, 100nM XL177A
[5] = average of Run 1 and Run 2, 1uM XL177A
[6] = average of Run 1 and Run 2, 10uM XL177A

USP7, sequence (Q93009 whole entry): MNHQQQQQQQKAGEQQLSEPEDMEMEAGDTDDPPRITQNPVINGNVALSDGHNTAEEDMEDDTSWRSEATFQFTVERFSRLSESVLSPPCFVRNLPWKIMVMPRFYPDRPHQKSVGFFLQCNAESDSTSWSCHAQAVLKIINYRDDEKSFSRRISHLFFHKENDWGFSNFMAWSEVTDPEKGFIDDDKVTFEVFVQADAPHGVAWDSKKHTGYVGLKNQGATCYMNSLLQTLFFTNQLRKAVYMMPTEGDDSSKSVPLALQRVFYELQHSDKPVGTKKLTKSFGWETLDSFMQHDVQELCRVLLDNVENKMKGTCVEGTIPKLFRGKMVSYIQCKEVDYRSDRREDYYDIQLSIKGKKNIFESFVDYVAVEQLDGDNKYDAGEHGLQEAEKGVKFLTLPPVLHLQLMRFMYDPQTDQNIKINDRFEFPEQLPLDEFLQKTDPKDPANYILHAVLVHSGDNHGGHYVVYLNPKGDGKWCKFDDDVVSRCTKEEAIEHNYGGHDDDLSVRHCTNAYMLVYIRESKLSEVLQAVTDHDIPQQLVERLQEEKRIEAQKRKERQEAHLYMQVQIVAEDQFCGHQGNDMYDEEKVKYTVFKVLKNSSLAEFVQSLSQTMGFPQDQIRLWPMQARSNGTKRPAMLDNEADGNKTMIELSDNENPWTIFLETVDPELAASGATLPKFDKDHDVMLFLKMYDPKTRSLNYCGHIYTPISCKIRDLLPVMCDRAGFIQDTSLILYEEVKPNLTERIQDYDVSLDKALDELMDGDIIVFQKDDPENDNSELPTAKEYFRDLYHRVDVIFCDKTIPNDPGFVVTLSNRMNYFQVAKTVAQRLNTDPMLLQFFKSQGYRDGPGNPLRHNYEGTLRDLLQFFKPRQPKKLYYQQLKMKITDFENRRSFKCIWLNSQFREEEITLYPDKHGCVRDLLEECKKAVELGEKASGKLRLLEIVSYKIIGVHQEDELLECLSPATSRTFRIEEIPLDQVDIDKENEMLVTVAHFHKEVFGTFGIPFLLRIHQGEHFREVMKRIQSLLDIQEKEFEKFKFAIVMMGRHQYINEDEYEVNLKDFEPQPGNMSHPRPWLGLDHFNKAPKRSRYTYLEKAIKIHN

With `CN1CCN(CCC(=O)Nc2ccc3c(=O)n(CC4(O)CCN(C(=O)[C@@H](CCCNC(=O)c5ccc6c(Cl)c7c(nc6c5)CCCC7)Cc5ccccc5)CC4)cnc3c2)CC1` [XL177A] the “Run 1 100nM 1” value (BZW2; [1]) was 6095061, the “Run 1 100nM 2” value (BZW2; [1]) was 5618739 and the “Run 1 100nM 3” value (BZW2; [1]) was 5891848. For the same molecule, the “Run 2 100nM 1” value (BZW2; [1]) was 6367486, the “Run 2 100nM 2” value (BZW2; [1]) was 5770311 and the “Run 2 100nM 3” value (BZW2; [1]) was 6244557. The “Run 1 1uM 1” value (BZW2; [2]) was 5512643, the “Run 1 1uM 2” value (BZW2; [2]) was 3810437 and the “Run 1 1uM 3” value (BZW2; [2]) was 5451627. The “Run 2 1uM 1” value (BZW2; [2]) was 5833621, the “Run 2 1uM 2” value (BZW2; [2]) was 3936167 and the “Run 2 1uM 3” value (BZW2; [2]) was 5735390. For the same molecule, the “Run 1 10uM 1” value (BZW2; [3]) was 4021260, the “Run 1 10uM 2” value (BZW2; [3]) was 4066194 and the “Run 2 10uM 1” value (BZW2; [3]) was 4140296. The “Run 2 10uM 2” value (BZW2; [3]) was 4394498, the “AVE 100nM 1” value (BZW2; [4]) was 6231274 and the “AVE 100nM 2” value (BZW2; [4]) was 5694525. The “AVE 100nM 3” value (BZW2; [4]) was 6068202, the “AVE 1uM 1” value (BZW2; [5]) was 5673132 and the “AVE 1uM 2” value (BZW2; [5]) was 3873302. The “AVE 1uM 3” value (BZW2; [5]) was 5593508, the “AVE 10uM 1” value (BZW2; [6]) was 4080778 and the “AVE 10uM 2” value (BZW2; [6]) was 4230346. The IC50 (USP7) was 39 nM.

Reference: PMC7093416, “Selective USP7 inhibition elicits cancer cell killing through a p53-dependent mechanism” (Scientific Reports, 2020)
